In the experiment the target is T1, human S1P1 receptor (Homo sapiens, UniProt P21453).
T1 construct: expressed in transfected cells; membranes were used
The experiment in a line: GTP γ35S binding assay for S1P1 activity. Type of experiment: biochemical. Particulars: membranes of cells stably expressing S1P1 receptor, agonist potency. The procedure:
Compounds were synthesized and tested for S1P1 activity using the GTP γ^355 binding assay. These compounds may be assessed for their ability to activate or block activation of the human S1P1 receptor in cells stably expressing the S1P1 receptor.
GTP γ^355 binding was measured in the medium containing (mM) HEPES 25, pH 7.4, MgCl2 10, NaCl 100, dithiothreitol 0.5, digitonin 0.003%, 0.2 nM GTP γ^355, and 5 μg membrane protein in a volume of 150 μl. Test compounds were included in the concentration range from 0.08 to 5,000 nM unless indicated otherwise. Membranes were incubated with 100 μM 5′-adenylylimidodiphosphate for 30 min, and subsequently with 10 μM GDP for 10 min on ice. Drug solutions and membrane were mixed, and then reactions were initiated by adding GTP γ^355 and continued for 30 min at 25° C. Reaction mixtures were filtered over Whatman GF/B filters under vacuum, and washed three times with 3 mL of ice-cold buffer (HEPES 25, pH7.4, MgCl2 10 and NaCl 100). Filters were dried and mixed with scintillant, and counted for ^35S activity using a β-counter. Agonist-induced GTP γ^355 binding was obtained by subtracting that in the absence of agonist. Binding data were analyzed using a non-linear regression method. In case of antagonist assay, the reaction mixture contained 10 nM […] in the presence of test antagonist at concentrations ranging from 0.08 to 5000 nM.

The record followed here is patent US8957051B2, “Bicyclic 1, 2, 4-oxadiazoles derivatives as sphingosine-1 phosphate receptors modulators” (Allergan, Inc., priority 2012, dated 2015).

Broadly, the EC50 is the concentration at which the effect is half-maximal.

T1 sequence (P21453 whole entry): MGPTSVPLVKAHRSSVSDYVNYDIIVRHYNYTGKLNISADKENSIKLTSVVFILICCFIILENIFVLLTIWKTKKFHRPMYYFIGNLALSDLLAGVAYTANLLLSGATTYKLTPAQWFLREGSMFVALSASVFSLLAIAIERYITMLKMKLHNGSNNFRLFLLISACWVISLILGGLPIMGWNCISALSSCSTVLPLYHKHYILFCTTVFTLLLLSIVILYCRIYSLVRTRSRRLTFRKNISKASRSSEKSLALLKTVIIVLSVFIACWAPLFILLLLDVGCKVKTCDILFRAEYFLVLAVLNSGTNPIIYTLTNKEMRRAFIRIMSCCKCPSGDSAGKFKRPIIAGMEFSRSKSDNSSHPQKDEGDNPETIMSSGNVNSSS

The molecule `O=P(O)(O)CCCNCc1ccc(-c2noc(CCCCc3ccccc3)n2)c2cccnc12` [Compound 1, {3-[({5-[5-(4-Phenylbutyl)-1,2,4-oxadiazol-3-yl]quinolin-8-yl}methyl)amino]propyl}phosphonic acid] gave an EC50 of 3.52 nM. That is a single-digit nanomolar value. Molecule `O=P(O)(O)CCCNCc1ccc(-c2noc(CCCc3ccccc3)n2)c2cccnc12` [Compound 2, {3-[({5-[5-(3-Phenylpropyl)-1,2,4-oxadiazol-3-yl]quinolin-8-yl}methyl)amino]propyl}phosphonic acid] had an EC50 of 9.87 nM. The figure for `O=P(O)(O)CCCNCc1ccc(-c2noc(CCCCCc3ccccc3)n2)c2cccnc12` [Compound 3, {3-[({5-[5-(5-Phenylpentyl)-1,2,4-oxadiazol-3-yl]quinolin-8-yl}methyl)amino]propyl}phosphonic acid] is 46.7 nM. The figure for `O=P(O)(O)CCCNCc1ccc(-c2noc(CCCCc3ccccc3)n2)c2ccccc12` [Compound 4, {3-[({4-[5-(4-Phenylbutyl)-1,2,4-oxadiazol-3-yl]-1-naphthyl}methyl)amino]propyl}phosphonic acid] is 24.9 nM. `O=P(O)(O)OCCNCc1ccc(-c2noc(CCCCc3ccccc3)n2)c2ccccc12` [Compound 6, 2-[({4-[5-(4-Phenylbutyl)-1,2,4-oxadiazol-3-yl]-1-naphthyl}methyl)amino]ethyl dihydrogen phosphate]: the response was half-maximal at 22.4 nM (EC50).
